By IC50 is commonly meant the concentration needed to halve the response being measured. Higher therefore signals weaker potency in that assay.

The structures appear in SMILES notation. Active and inactive are the calls of the source. The rule behind the calls is not given here.

Assay [1] has as its system Bcap37. Description: Cytotoxicity against human Bcap37 cells after 48 hrs by MTT assay. It counts as functional, cell-based. The conditions noted are these: Bcap37, 48 h.
Assay [2] concerns HepG2. In words: Cytotoxicity against human HepG2 cells after 48 hrs by MTT assay. It counts as functional, cell-based. Particulars: HepG2, 48 h.
A short description of assay [3]: Cytotoxicity against human SGC7901 cells after 48 hrs by MTT assay. It counts as functional, cell-based. The conditions noted are these: SGC-7901, 48 h.
The test system of assay [4] is MGC-803. In words: Cytotoxicity against human MGC803 cells after 48 hrs by MTT assay. It counts as functional, cell-based. Particulars: MGC-803, 48 h. (Formazan colour is commonly taken as a measure of viable cells.)
Assay [5] has as its target DNA polymerase I, thermostable (Thermus aquaticus) (UniProt P19821). In words: Inhibition of Thermus aquaticus Taq polymerase at IC50 for telomerase inhibition after 15 mins using ethidium bromide staining by 2% agarose gel electrophoresis analysis.
Assay [6] deals with Telomerase reverse transcriptase (Homo sapiens, UniProt O14746). Description: Inhibition of telomerase in human MGC803 cell extracts after 24 hrs by TRAP-PCR-ELISA. Set-up: species or system MGC-803. (In general: An ELISA detects its analyte on a solid surface through an enzyme-linked reagent.)
For assay [7], the system named is MGC-803. Description: Cell cycle arrest in human MGC803 cells at 0.92 uM after 48 hrs using propidium iodide staining after 48 hrs by flow cytometer relative to control. It is filed as functional. In general terms: In flow cytometry, cells or beads pass a laser one at a time.
Assay [8] deals with MGC-803. Description: Cell cycle arrest in human MGC803 cells assessed as accumulation at G2/M phase at […] uM after 48 hrs using propidium iodide staining after 48 hrs by flow cytometer relative to control. It counts as functional.
Assay [9] deals with MGC-803. In words: Cell cycle arrest in human MGC803 cells assessed as accumulation at S phase at […] uM after 48 hrs using propidium iodide staining after 48 hrs by flow cytometer relative to control. It counts as functional.
Assay [10] concerns MGC-803. In words: Cell cycle arrest in human MGC803 cells assessed as accumulation at G0/G1 phase at […] uM after 48 hrs using propidium iodide staining after 48 hrs by flow cytometer relative to control. It counts as functional.
The test system of assay [11] is MGC-803. In words: Cell cycle arrest in human MGC803 cells assessed as accumulation at G2/M phase at 25 uM after 48 hrs using propidium iodide staining after 48 hrs by flow cytometer relative to control. It counts as functional.
The test system of assay [12] is MGC-803. In words: Cell cycle arrest in human MGC803 cells assessed as accumulation at S phase at 25 uM after 48 hrs using propidium iodide staining after 48 hrs by flow cytometer relative to control. It counts as functional.
Assay [13] deals with MGC-803. Description: Cell cycle arrest in human MGC803 cells assessed as accumulation at G0/G1 phase at 25 uM after 48 hrs using propidium iodide staining after 48 hrs by flow cytometer relative to control. It counts as functional.

Chain of DNA polymerase I, thermostable (Thermus aquaticus) (P19821 whole entry): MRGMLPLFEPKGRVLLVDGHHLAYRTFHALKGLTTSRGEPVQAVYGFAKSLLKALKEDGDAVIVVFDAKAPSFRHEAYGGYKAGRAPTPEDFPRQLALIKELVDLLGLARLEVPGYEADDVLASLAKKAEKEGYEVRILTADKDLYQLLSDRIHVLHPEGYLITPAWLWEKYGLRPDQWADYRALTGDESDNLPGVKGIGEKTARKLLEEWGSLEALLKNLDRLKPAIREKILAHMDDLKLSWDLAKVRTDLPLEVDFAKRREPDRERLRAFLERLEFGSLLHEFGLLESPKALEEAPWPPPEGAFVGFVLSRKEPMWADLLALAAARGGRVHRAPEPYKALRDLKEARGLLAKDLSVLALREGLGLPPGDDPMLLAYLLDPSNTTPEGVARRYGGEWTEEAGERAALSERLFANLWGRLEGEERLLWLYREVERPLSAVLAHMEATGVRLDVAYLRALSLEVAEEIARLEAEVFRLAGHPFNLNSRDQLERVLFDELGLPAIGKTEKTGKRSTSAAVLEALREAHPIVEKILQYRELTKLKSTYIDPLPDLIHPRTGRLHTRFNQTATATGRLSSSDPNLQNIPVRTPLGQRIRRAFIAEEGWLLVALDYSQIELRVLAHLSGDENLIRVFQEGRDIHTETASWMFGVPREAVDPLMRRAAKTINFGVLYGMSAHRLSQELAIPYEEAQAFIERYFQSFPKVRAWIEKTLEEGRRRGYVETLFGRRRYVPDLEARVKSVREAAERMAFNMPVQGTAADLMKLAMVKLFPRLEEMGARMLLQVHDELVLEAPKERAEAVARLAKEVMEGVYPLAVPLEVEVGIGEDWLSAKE
Chain of Telomerase reverse transcriptase (O14746 whole entry): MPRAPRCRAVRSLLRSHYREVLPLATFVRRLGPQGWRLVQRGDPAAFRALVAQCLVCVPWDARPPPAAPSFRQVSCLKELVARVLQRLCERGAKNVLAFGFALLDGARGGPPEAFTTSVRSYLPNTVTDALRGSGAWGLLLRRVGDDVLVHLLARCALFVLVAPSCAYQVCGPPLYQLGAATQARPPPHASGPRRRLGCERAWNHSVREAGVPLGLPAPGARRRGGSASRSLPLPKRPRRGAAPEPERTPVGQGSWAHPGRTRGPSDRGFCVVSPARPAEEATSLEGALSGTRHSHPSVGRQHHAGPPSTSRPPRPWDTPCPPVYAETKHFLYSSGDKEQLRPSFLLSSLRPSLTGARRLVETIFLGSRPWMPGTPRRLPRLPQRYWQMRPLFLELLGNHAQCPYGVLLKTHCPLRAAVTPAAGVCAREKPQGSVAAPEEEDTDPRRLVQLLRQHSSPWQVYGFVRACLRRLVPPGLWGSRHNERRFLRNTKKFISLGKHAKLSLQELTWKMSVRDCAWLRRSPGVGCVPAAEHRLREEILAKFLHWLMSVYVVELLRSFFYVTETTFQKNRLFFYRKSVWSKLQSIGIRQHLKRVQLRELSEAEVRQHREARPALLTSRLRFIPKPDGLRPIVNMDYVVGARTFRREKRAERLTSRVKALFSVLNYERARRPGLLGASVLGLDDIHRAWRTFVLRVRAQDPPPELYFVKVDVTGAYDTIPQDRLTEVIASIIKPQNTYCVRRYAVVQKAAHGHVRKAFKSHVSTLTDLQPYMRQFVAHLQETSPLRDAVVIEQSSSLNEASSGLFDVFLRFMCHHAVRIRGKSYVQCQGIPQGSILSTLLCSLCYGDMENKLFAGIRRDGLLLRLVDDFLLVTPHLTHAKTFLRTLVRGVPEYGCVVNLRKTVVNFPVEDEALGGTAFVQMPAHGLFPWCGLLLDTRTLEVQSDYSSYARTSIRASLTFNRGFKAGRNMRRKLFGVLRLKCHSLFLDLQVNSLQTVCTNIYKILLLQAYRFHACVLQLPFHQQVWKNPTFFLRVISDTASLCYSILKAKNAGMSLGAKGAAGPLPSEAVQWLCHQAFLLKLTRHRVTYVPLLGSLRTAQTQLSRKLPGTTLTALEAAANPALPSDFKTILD

On to `O=C(CSc1ccc([N+](=O)[O-])cc1)N1N=C(c2cc3ccccc3oc2=O)C[C@@H]1c1ccc(C(F)(F)F)cc1`, for which the IC50 was determined as 16.5 µM in assay [1], 7.76 µM in assay [2], 8.51 µM in assay [3] and 10.2 µM in assay [4].

On to `O=C(CSc1ccc(Br)cc1)N1N=C(c2cc3ccccc3oc2=O)C[C@@H]1c1ccc(C(F)(F)F)cc1`, for which the inhibition result in assay [5] is “inactive”. Besides, the IC50 in assay [6] was determined as 25.1 µM; in assay [1], 7.99 µM; in assay [2], 12.7 µM; in [3], 12.1 µM; in assay [4], 10.8 µM.

For the compound `CC1=NN(C(=O)CSc2ccc(Br)cc2)[C@@H](c2cc(Br)cc(Br)c2O)C1`, the IC50 in assay [1] is 3.2 µM; in assay [2] it was 6.87 µM; in [3], 8.21 µM; in assay [4], 12.8 µM.

On to `COC(=O)CSCC(=O)N1N=C(C)C[C@@H]1c1cc(Br)cc(Br)c1O`, for which, in [5], the inhibition entry was “inactive”. Moreover, the IC50 in assay [6] stood at 1.19 µM; in assay [1] it was 3.7 µM; in assay [2], 2.95 µM; in assay [3] it was 3.3 µM; in [4] it was 2.27 µM.

On to `O=C(CSCc1ccco1)N1N=C(c2cc3ccccc3oc2=O)C[C@@H]1c1ccc(C(F)(F)F)cc1`, for which the IC50 in [1] is 12 µM; in assay [2], 11.2 µM; in [3], 9.74 µM; in assay [4], 15.2 µM.

With `CCCCSCC(=O)N1N=C(c2cc3ccccc3oc2=O)C[C@@H]1c1ccccc1C(F)(F)F`, the inhibition result in assay [5] was “inactive”. Besides, the IC50 in assay [6] worked out at 2 µM; in [1] it was 9.73 µM; in assay [2], 5.01 µM; in assay [3], 4.42 µM; in assay [4], 3.14 µM.

With `O=C(CSc1ccc(Br)cc1)N1N=C(c2cc3ccccc3oc2=O)C[C@@H]1c1ccccc1`, the IC50 was found to be 13 µM in [1], 14.5 µM in assay [2], 14.3 µM in [3] and 16.8 µM in assay [4].

In the case of `CC1=NN(C(=O)CSc2ccccn2)[C@@H](c2cc(Br)cc(Br)c2O)C1`, the IC50 was determined as 16.7 µM in assay [1], 24.7 µM in assay [2], 10.3 µM in assay [3] and 12.3 µM in assay [4].

On to `O=c1[nH]cc(F)c(=O)[nH]1` [FLUOROURACIL], for which the concentration for half-maximal inhibition (IC50) came out at 5.58 µM in assay [1], 4.35 µM in assay [2], 7.37 µM in [3] and 3.68 µM in assay [4].

Turning to `O=C(CSc1ccccc1)N1N=C(c2cc3ccccc3oc2=O)C[C@@H]1c1ccccc1`, the IC50 in assay [1] was found to be 14.8 µM; in [2], 16.3 µM; in assay [3], 20.3 µM; in assay [4] it was 22.8 µM.

Consider `CCCCSCC(=O)N1N=C(c2cc3ccccc3oc2=O)C[C@@H]1c1ccc(C(F)(F)F)cc1`, for which the inhibition result in [5] was “inactive”. Further, the IC50 in assay [6] amounted to 0.92 µM; in [1], 3.55 µM; in assay [2], 8.68 µM; in [3], 2.91 µM; in assay [4], 2.35 µM. In assay [7], the Activity stood at 66%.

As to `CC1=NN(C(=O)CSc2ccccc2)[C@@H](c2cc(Br)cc(Br)c2O)C1`, the IC50 in assay [1] stood at 13.1 µM; in assay [2], 10.3 µM; in assay [3], 24.1 µM; in assay [4], 12.7 µM.

For the compound `CCCSCC(=O)N1N=C(C)C[C@@H]1c1cc(Br)cc(Br)c1O`, the inhibition entry in assay [5] was “inactive”. Further, the IC50 in assay [6] was determined as 1.04 µM; in [1], 3.24 µM; in assay [2] it was 4 µM; in assay [3] it was 2.3 µM; in [4], 2.97 µM. The Activity in [8] turned out to be 25.2%; in assay [9] it was 30.1%; in assay [10], 47.2%.

In the case of `O=C(CSc1ncccn1)N1N=C(c2cc3ccccc3oc2=O)C[C@@H]1c1ccccc1C(F)(F)F`, the inhibition result in assay [5] was “inactive”. Also, the IC50 in assay [6] stood at 8.89 µM; in assay [1], 4.09 µM; in [2] it was 6.54 µM; in [3], 4.97 µM; in assay [4], 4 µM.

On to `O=C(CSc1ccc([N+](=O)[O-])cc1)N1N=C(c2cc3ccccc3oc2=O)C[C@@H]1c1ccccc1C(F)(F)F`, for which the IC50 came out at 10.8 µM in assay [1], 7.7 µM in assay [2], 9.77 µM in assay [3] and 7.58 µM in [4].

Take `CCCCSCC(=O)N1N=C(c2cc3ccccc3oc2=O)C[C@@H]1c1ccccc1`: the IC50 stood at 9.7 µM in [1], 6.64 µM in [2], 7.3 µM in assay [3] and 12.8 µM in [4].

`O=C(CSCc1ccco1)N1N=C(c2cc3ccccc3oc2=O)C[C@@H]1c1ccccc1C(F)(F)F`: the IC50 in assay [1] is 10.3 µM; in assay [2], 18 µM; in assay [3], 10.2 µM; in [4], 15.7 µM.

Compound `CC[n+]1c(-c2ccccc2)c2cc(N)ccc2c2ccc(N)cc21` [HOMIDIUM BROMIDE] gave an IC50 in assay [6] of 2.1 µM. In other words, the single-digit micromolar range.

As to `CC1=NN(C(=O)CSc2nc3ccccc3s2)[C@@H](c2cc(Br)cc(Br)c2O)C1`, the IC50 came to 4.65 µM in [6]; 9.7 µM in assay [1]; 8.7 µM in [2]; 12.3 µM in assay [3]; 7.8 µM in assay [4].

Take `C/C(=C\C(=O)Nc1ccccc1C(=O)O)c1ccc2ccccc2c1`: half-maximal inhibition in assay [6] (IC50) was put at 0.28 µM. That is a sub-micromolar value.

Consider `O=C(CSc1ncccn1)N1N=C(c2cc3ccccc3oc2=O)C[C@@H]1c1ccc(C(F)(F)F)cc1`, for which the IC50 in assay [1] came to 3.77 µM; in [2], 4.75 µM; in assay [3], 4.39 µM; in [4] it was 2.89 µM.

Regarding `O=C(CSc1ccc(Br)cc1)N1N=C(c2cc3ccccc3oc2=O)C[C@@H]1c1ccccc1C(F)(F)F`, the half-maximal inhibitory concentration (IC50) turned out to be 10.3 µM in assay [1], 17.9 µM in assay [2], 14.7 µM in [3] and 21.3 µM in assay [4].

As to `O=c1cc(N2CCOCC2)oc2c(-c3ccccc3)cccc12` [LY-294002], the results for the Activity in assay [11], in assay [12] and in assay [13] were 22.4%, 27.1% and 50.5%, respectively.

The record behind these values is ChEMBL document CHEMBL3112413, “Novel coumarin-dihydropyrazole thio-ethanone derivatives: design, synthesis and anticancer activity” (Eur J Med Chem, 2014).
